Source: patent EP4527828A1, “BIPHENYL COMPOUND, PHARMACEUTICAL COMPOSITION, METHOD FOR PREPARING SAME, AND USE THEREOF” (Longivitron (Suzhou) Biotechnology Co., Ltd, priority 2022, dated 2023)
Where two headings read alike, the source gives them in different places.

Columns and labels:
LAG3/MHCII = biological target: T1, LAG3/MHCII (Homo sapiens, UniProt P18627); test: HTRF binding inhibition of LAG3 and its ligand MHCII; conditions: binding inhibition LAG3/MHCII
T1 sequence (P18627 23-450 limits assumed): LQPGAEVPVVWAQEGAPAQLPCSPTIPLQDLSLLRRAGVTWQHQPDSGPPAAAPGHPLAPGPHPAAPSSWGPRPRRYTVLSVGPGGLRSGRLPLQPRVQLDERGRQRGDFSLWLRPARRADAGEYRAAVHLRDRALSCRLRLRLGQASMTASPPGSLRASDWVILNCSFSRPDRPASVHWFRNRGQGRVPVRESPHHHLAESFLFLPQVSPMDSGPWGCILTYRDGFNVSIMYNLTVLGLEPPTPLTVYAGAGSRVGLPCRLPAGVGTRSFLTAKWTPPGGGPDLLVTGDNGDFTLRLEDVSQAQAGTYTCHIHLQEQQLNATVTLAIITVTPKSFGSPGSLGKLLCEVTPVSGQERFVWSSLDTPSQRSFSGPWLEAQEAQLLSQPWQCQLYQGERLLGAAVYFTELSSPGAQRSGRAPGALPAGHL
Method: HTRF (Homogeneous time-resolved fluorescence) is based on two techniques, fluorescence resonance energy transfer (FRET) and time-resolved fluorescence (TRF). The detection was carried out using a 384-well plate. 2 µL of a compound to be tested with an appropriate concentration was collected, 4 µL of Tag1-LAG3 protein (with a final concentration of 10 nmol·L^-1) was added, 4 µL of Tag2-MHCII (with a final concentration of 20 nmol·L^-1) was added, and the plate was incubated at room temperature for 15 min. 10 µL of Anti-Tag1-Tb working solution (prepared by adding 25 µL of Anti-Tag1-Tab mother solution to 2475 µL of dilution buffer) was added, 10 µL of Anti-Tag2-XL665 working solution (prepared by adding 25 µL of Tag2-XL665 mother solution to 2475 µL of dilution buffer) was added, and the plate was sealed with a film and incubated at room temperature for 1 h. The detection was carried out using a Perkin Elma Envision instrument.

[1] = system: mouse liver cancer HEPA1-6; format: in vivo; conditions: 27 days
Method: (1) 32 8-week-old female C57L mice were selected and divided into 5 cages. HEPA1-6 cells cultured with DMEM + 10% FBS in vitro were washed with PBS and digested with 0.25% trypsin for 3 min. The digestion was terminated with a serum-containing medium, the cells were centrifuged at 2500 rpm for 5 min, the supernatant was discarded, and the cells were resuspended with an appropriate amount of PBS twice. The number of cells was 1.14 × 10^7 cells/mL as counted with a BioRad counting instrument. The cell suspension was placed in an Erlenmeyer flask in an ice bath for later use. The tumor fluid was evenly aspirated using a 1 mL sterile syringe and inoculated 0.2 mL/mouse. After the inoculation was completed, the mice continued to be fed under the initial feeding conditions.
(2) Animal grouping: On the second day after tumor fluid inoculation of C57B/L mice, 32 mice were randomly grouped: 8 mice in a control group, 6 mice in a Compound 4-5 mg/kg group, 6 mice in a Compound 4-10 mg/kg group, 6 mice in a Compound 4-20 mg/kg group, and 6 mice in a positive control drug cyclophosphamide (CTX)-100 mg/kg group. The drug test groups were given the drugs to be tested orally once a day, and the positive control drug CTX was injected intraperitoneally once. The mice were weighed and administered daily.
(3) Drug preparation: The corresponding amounts of the drugs to be tested were weighed according to the final concentrations of the experimental groups. The drugs of the Compound 4-5 mg/kg group, the Compound 4-10 mg/kg group, and the Compound 4-20 mg/kg group were prepared with 5% CMCNa + Tween 80, and CTX was prepared with normal saline. The mice in the control group were given 5% CMCNa solution orally. The dosages were as follows: 0.4 mL/20 g body weight of the animal for intragastric administration, and 0.2 mL/20 g body weight of the animal for intraperitoneal injection.
(4) The animals were sacrificed, and the tumors were separated and weighed. The animals in each group were treated immediately 1 h after administration on the last day and weighed, and the tumor tissue was separated and weighed.

mouse melanoma B16F10 = format: in vivo; conditions: 15 days
Method: (1) 43 8-week-old female C57B/L mice were selected and divided into 5 cages. One preserved B16F10 tumor-bearing female C57L mouse was sacrificed by cervical dislocation. 75% alcohol was sprayed on the skin of the mouse in a laminar flow cabinet, and the tumor tissue of the tumor-bearing mouse was separated by sterilized surgical instruments and cut into a sterilized 5 mL homogenizer with ophthalmic scissors. The tumor tissue was slowly milled on ice to form a tumor fluid. The number of cells was 6.85 × 10^7 cells/mL as counted with a BioRad counting instrument. The tumor fluid was placed in an Erlenmeyer flask in an ice bath for later use. The tumor fluid was evenly aspirated using a 1 mL sterile syringe and inoculated 0.2 mL/C57/L mouse. After the inoculation was completed, the mice continued to be fed under the initial feeding conditions.
(2) Animal grouping and administration: On the second day after tumor fluid inoculation of C57B/L mice, 43 mice were randomly grouped: 10 mice in a control group, 8 mice in a Compound 4-20 mg/kg group, 8 mice in a Compound 4-30 mg/kg group, 8 mice in a Compound 4-40 mg/kg group, and 9 mice in a positive control drug cyclophosphamide CTX-100 mg/kg group. The mice were weighed and administered.
(3) Drug preparation: The corresponding amounts of the drugs were weighed according to the final concentrations of the experimental groups. The drugs of the Compound 4-20 mg/kg group and the Compound 4-30 mg/kg group were prepared with 0.25% CMCNa + Tween 80 and administered orally once a day. The drug of Compound 4-40 mg/kg was prepared with normal saline + Tween 80 and administered intraperitoneally. CTX was prepared with normal saline and administered intraperitoneally once. The mice in the control group were given 0.25% CMCNa solution orally.
(4) The animals were sacrificed, and the tumors were separated and weighed. The animals in each group were treated immediately 1 h after administration on the last day and weighed, and the tumor tissue was weighed.

[2] = HEPA1-6, 10 mg/kg po once a day
[3] = HEPA1-6, 20 mg/kg po once a day
[4] = B16F10, 40 mg/kg, table prints po, text says intraperitoneally

| SMILES | IC50 (LAG3/MHCII) [µM] | Inhibition rate ([1]; HEPA1-6, 5 mg/kg po once a day) [%] | Tumor weight ([1]; HEPA1-6, 5 mg/kg po once a day) [g] | Inhibition rate [1, 2] [%] | Tumor weight [1, 2] [g] | Inhibition rate [1, 3] [%] | Tumor weight [1, 3] [g] | Inhibition rate (mouse melanoma B16F10; B16F10, 20 mg/kg po once a day) [%] | Tumor weight (mouse melanoma B16F10; B16F10, 20 mg/kg po once a day) [g] | Inhibition rate (mouse melanoma B16F10; B16F10, 30 mg/kg po once a day) [%] | Tumor weight (mouse melanoma B16F10; B16F10, 30 mg/kg po once a day) [g] | Inhibition rate (mouse melanoma B16F10; [4]) [%] | Tumor weight (mouse melanoma B16F10; [4]) [g] |
| --- | --- | --- | --- | --- | --- | --- | --- | --- | --- | --- | --- | --- | --- |
| CCCCCCOc1ccc(C(=O)O)cc1-c1cc(C(=O)NCCCCNC(=O)C(F)(F)F)ccc1OCCCCCC [Compound 8] | 8.34 | – | – | – | – | – | – | – | – | – | – | – | – |
| CCCCCCOc1ccc2cc1-c1cc(ccc1OCCCCCC)C(=O)CCCCCC2=O [Compound 4] | 18 | 24.72 | 0.510 ± 0.312 | 52 | 0.325 ± 0.256 | 36.56 | 0.430 ± 0.140 | 55.12 | 1.304 ± 0.623 | 28.00 | 2.091 ± 1.199 | 44.40 | 1.615 ± 0.495 |
